Experimental data as given in patent US5476856A, “Treatment of PAF and histamine-mediated diseases with 8-chloro-11-[1-[(5-methyl-3-pyridyl)methyl]-4-piperidyliden]-6,11-dihydr o-5H-benzo[5,6]cyclohepta[1,2-b]pyridine” (J. Uriach & Cia. S.A., priority 1992, dated 1995).
Counter-ions that a name gives are not always drawn.

Columns and labels:
[1] = system: hypotension induced by PAF; test: Inhibition of the hypotensive effect induced by PAF in normotense rats (Test 2); parameters: species or system Sprage Dawley rats; conditions: Rattus norvegicus; iv, 3 min before PAF 0.5 mcg/Kg i.v.; 50% inhibition of hypotension; read-out: PAF antagonism in vivo, Test 2 Art. p. ID50
Protocol: Male Sprage Dawley rats (b.w. 180-220 g) anesthetized with sodium pentobarbital (50 mg/Kg, i.p. 1 mL/100 g) are used. In order to measure the average arterial pressure, a polyethylene catheter is introduced into the carotid artery. The arterial pressure is recorded with the help of a transducer connected with a R611 Beckman polygraph. The test compounds are administered through the femoral vein 3 min. before the injection of PAF (0.5 mcg/Kg, i.v.).

[2] = system: platelet aggregation induced by PAF; test: Inhibition of platelet aggregation induced by PAF (Test 1); format: cell-based, New Zealand albino rabbits; conditions: Oryctolagus cuniculus; rabbit platelet rich plasma; PAF (C18) 16 nM final; read-out: PAF antagonism in vitro, Test 1 Plat. aggreg. IC50
Protocol: The platelet rich plasma (PRP) is prepared by blood centrifugation at 250×g for 10 min. at 4° C. and it is diluted with platelet poor plasma (PPP) obtained by additional centrifugation at 3000×g for 10 min. The amount of platelets is adjusted to […].

[3] = system: histamine-induced contraction of guinea-pig ileum (AntiH1); test: Antihistamine activity in guinea-pig ileum (Test 4, AntiH1 act.); format: cell-based, Dunkin-Hartley guinea pigs; conditions: for IC50: Cavia porcellus, histamine 5×10^-7 M, 5 min preincubation, read-out: Antihistaminic activity in vitro, Test 4 AntiH1 act. ileum IC50; for IC50 / antihistamine activity compared with compounds 11 and 12-14, in words / antihistamine potency in words: guinea-pig ileum
Protocol: This test was performed according to the method of Magnus. Male Dunkin-Hartley guinea pigs (b.w. 300-350 g), fasted overnight, were used. Animals were stunned, the abdomen was opened and 4 cm long ileum sections were cut. The sections were placed in a Petri dish containing Tyrode's solution at 37° C. and continuously bubbled with carbogen. The ileum fragments were washed with Tyrode's solution and then were transferred to an organ bath. Ileum contraction was measured using an isometric transducer. The initial load was 1 g. After a stabilization period of 20 min in which the organ is immersed in Tyrode's solution at 37° C. continuously bubbled with carbogen, non cumulative stimuli with submaximal doses of histamine (5×10^-7 M) were given. The contraction in absence or presence (5 min. preincubation time) of the test compounds was recorded.

mortality induced by PAF = test: Mortality induced by PAF in mice (p.o.) (Test 3); format: in vivo, Swiss mice; conditions: for ED50: Mus musculus, 2 h, po, 1 h before 100 mcg/kg PAF-C18 and 1 mg/kg propanolol, 50% inhibition of mortality, read-out: PAF antagonism in vivo, Test 3 Mort. ID50
Protocol: This test was performed according to the procedure described by Young et al. (Prostaglandins, 1985, 30, 545-551). Groups of 10 Swiss mice weighing from 22 to 26 g were used. 100 mcg/kg of PAF-C18 and 1 mg/kg of propanolol were administered through a lateral tail vein 1 h after the oral administration of the compounds to be tested (0.2 mL/10 g). Animals were examined 2 h after the injection of PAF. The percentage of the inhibition of the mortality induced by PAF was determined for all test compounds in comparison with the control group. The results are expressed as ID50 values, that is to say, the amount of compound by weight of animal (dose) needed to inhibit the mortality induced by PAF in a 50%.

| SMILES | ED50 [1] | IC50 [2] | IC50 [3] | ED50 (mortality induced by PAF) | antihistamine activity compared with compounds 11 and 12-14, in words [3] | antihistamine potency in words [3] | antihistaminic potency relative to the 2-methyl derivative 3 ([3]; more potent than compound 3) | antihistaminic potency relative to compound 11 ([3]; more potent than compound 11) | antihistaminic potency relative to the 6-methyl and 4-methyl derivatives 2 and 5 ([3]; more potent than compounds 2 and 5) | activity in the PAF-induced mortality test, in words (mortality induced by PAF; oral administration) | activity in the PAF-induced mortality test relative to all the other tested compounds (mortality induced by PAF; oral, superior to all the other tested compounds) |
| --- | --- | --- | --- | --- | --- | --- | --- | --- | --- | --- | --- |
| Clc1ccc2c(c1)CCc1cccnc1C2=C1CCN(Cc2cccnc2)CC1 [Compound 1, 8-chloro-11-(1-(3-pyridylmethyl)-4-piperidyliden)-6,11-dihydro-5H-benzo[5,6]cyclohepta[1,2-b]pyridine] | > 5 mg/kg | 4 µM | 160 nM | 30 mg/kg |  |  |  |  |  |  |  |
| Cc1ccc(CN2CCC(=C3c4ccc(Cl)cc4CCc4cccnc43)CC2)cn1 [Compound 2, 8-chloro-11-(1-[(6-methyl-3-pyridyl)metyl]-4-piperidyliden)-6,11-dihydro-5H-benzo [5,6]cyclohepta[1,2-]pyridine] | > 5 mg/kg | 9 µM | 37 nM | 30 mg/kg | stronger activity than the 4-pyridine 11 and the compounds 12-14 | potent antihistamines |  |  |  |  |  |
| Cc1ncccc1CN1CCC(=C2c3ccc(Cl)cc3CCc3cccnc32)CC1 [Compound 3, 8-chloro-11-(1-[(2-methyl-3-pyridyl)methyl]-4-piperidyliden)-6,11-dihydro-5H-benzo [5,6]cyclohepta[1,2-b]pyridine] | > 5 mg/kg | 13 µM | 270 nM | > 30 mg/kg |  |  |  |  |  |  |  |
| Cc1cncc(CN2CCC(=C3c4ccc(Cl)cc4CCc4cccnc43)CC2)c1 [Compound 4, 8-chloro-11-[1-[(5-methyl-3-pyridyl)methyl]-4-piperidyliden]-6,11-dihydro-5H-benzo[5,6]cyclohepta[1,2-b]pyridine] | 0.44 mg/kg | 3.2 µM | 4.3 nM | 1.9 mg/kg | stronger activity than the 4-pyridine 11 and the compounds 12-14 | potent antihistamines | ~100 fold | 20 fold | 10 fold | strong activity | ≥ 10 fold |
| Cc1ccncc1CN1CCC(=C2c3ccc(Cl)cc3CCc3cccnc32)CC1 [Compound 5, 8-chloro-11-(1-[(4-methyl-3-pyridyl)methyl]-4-piperidyliden)-6,11-dihydro-5H -benzo[5.6]cyclohepta[1,2]pyridine] | > 5 mg/kg | 15 µM | 35 nM | 10 to 30 mg/kg | stronger activity than the 4-pyridine 11 and the compounds 12-14 | potent antihistamines |  |  |  |  |  |
| Clc1ccc2c(c1)CCc1cccnc1C2=C1CCN(Cc2cccnc2Cl)CC1 [Compound 6, 8-chloro-11-(1-[(2-chloro-3-pyridyl)methyl]-4-piperidyliden)-6,11-dihydro-5H -benzo[5,6]cyclohepta[1,2-b]pyridine] | > 5 mg/kg | > 100 µM | 350 nM | > 30 mg/kg |  |  |  |  |  |  |  |
| Clc1ccc2c(c1)CCc1cccnc1C2=C1CCN(Cc2ccc(Cl)nc2)CC1 [Compound 7, 8-chloro-11-(1-[(6-chloro-3-pyridyl)methyl]-4-piperidyliden)-6,11-dihydro-5H -benzo[5,6]cyclohepta[1,2-b]pyridine] | > 5 mg/kg | > 100 µM |  | 20 to 30 mg/kg |  |  |  |  |  |  |  |
| Clc1ccc2c(c1)CCc1cccnc1C2=C1CCN(Cc2cncc(Br)c2)CC1 [Compound 8, 8-chloro-11-(1-[(3-bromo-5-pyridyl)methyl]-4-piperidyliden)-6,11-dihydro-5H -benzo[5,6]cyclohepta[1,2-b]pyridine, trihydrochloride] | > 5 mg/kg | 0.72 µM | 280 nM | < 30 mg/kg |  |  |  |  |  |  |  |
| COc1ccc(CN2CCC(=C3c4ccc(Cl)cc4CCc4cccnc43)CC2)cn1 [Compound 9, 8-chloro-11-(1-[(6-methoxy-3-pyridyl)methyl]-4-piperidyliden)-6,11-dihydro-5H -benzo[5,6]cyclohepta[1,2-b]pyridine] |  | 37 µM | 380 nM |  |  |  |  |  |  |  |  |
| Clc1ccc2c(c1)CCc1cccnc1C2=C1CCN(Cc2ccncc2)CC1 [Compound 11, reference compound] | > 5 mg/kg | 1.8 µM | 94 nM | 30 mg/kg |  |  |  |  |  |  |  |
| CC(=O)N1CCC(=C2c3ccc(Cl)cc3CCc3cccnc32)CC1 [Compound 12, reference compound] | 2 mg/kg | 0.84 µM | 100 nM | 31 mg/kg |  |  |  |  |  |  |  |
| O=C(c1cc[n+]([O-])cc1)N1CCC(=C2c3ccc(Cl)cc3CCc3cccnc32)CC1 [Compound 13, reference compound] | 1.9 mg/kg | 0.22 µM | 210 nM | > 30 mg/kg |  |  |  |  |  |  |  |
| CCOC(=O)N1CCC(=C2c3ccc(Cl)cc3CCc3cccnc32)CC1 [Compound 14, reference compound] | > 5 mg/kg |  |  | > 30 mg/kg |  |  |  |  |  |  |  |
